Legend:
human PBMCs = details: LL-37 at 5 μg/mL; cited from earlier work
Description: In contrast to the chemotactic potential of LL-37, available data on its ability to induce cytokine production by different cells argue for the absence of its biological activity at low physiological concentrations of ∼5 μg/mL observed in non-inflamed tissues. […] In the current study, we used LL-37 at a concentration of 1 μM (4.5 μg/mL) to study whether this peptide had immunomodulatory activity under non-inflamed physiological conditions. In ou ...

[1] = system: monocytes in Caco-2/Monocytes co-culture; assay: Multiplex phosphoprotein signaling in monocyte lysates, Caco-2/monocytes co-culture + LL-37; type: cell-based, human; details: monocyte lysate, 1 µM LL-37, 2 h, mean MFI normalized to β-tubulin
Description: Primary blood monocytes were isolated from PBMCs by plastic adhesion in the wells of a 24-well plate 24 h prior to the experiment. For that, 2 × 10^6 PBMC were seeded in each well in 2 mL of RPMI-1640 without supplements and kept for 1 h in a humidified CO2-incubator (5% CO2, 37 °C). Then, the adhered monocytes were thoroughly washed 3 times with the culture medium without supplements, and 600 µL of the complete RPMI-1640, supplemented with 10% Human AB serum, was added into each well. Then, 24 h later, the medium in the wells of a 24-well plate was replaced by a fresh medium with or without 1 µM of LL-37, and the permeable inserts with Caco-2 monolayers with TEER > 400 Ω × cm^2, containing 400 μL of the complete medium in their apical chamber, were immediately placed into the appropriate wells for 2 h. Then, 2 h later, the culture medium and the inserts were carefully removed, and the cells in each well were washed with PBS and lysed in 100 µL of MILLIPLEX MAP Lysis Buffer (cat. #43-040, Merck, Darmstadt, Germany), containing phosphatase inhibitors including 1 mM sodium orthovanadate (Na3VO4). To prevent protein degradation, a protease inhibitor cocktail (cat. #535140, Merck) was freshly added to the MILLIPLEX MAP Lysis Buffer. Cell lysate preparation was performed in accordance with the manufacturer’s instructions.
The phosphorylation of the following key cell signaling kinases and transcription factors was measured in cell lysates by using the MILLIPLEX multi-pathway magnetic bead 9-plex kit (#48-680MAG, Merck), containing phosphorylation state-specific antibodies: ERK/MAP kinase 1/2 (Thr185/Tyr187), Akt (Ser473), STAT3 (Ser727), JNK (Thr183/Tyr185), p70S6 kinase (Thr412), NF-κB (Ser536), STAT5A/B (Tyr694/699), CREB (Ser133), and p38 (Thr180/Tyr182). β-Tubulin MAPmate magnetic beads (#46-713MAG, Merck) were used as an assay normalization control to normalize the total protein level between the samples. A multiplex assay was carried out in accordance with the manufacturer’s instructions with overnight incubation of the samples with primary antibodies to phosphorylated signaling proteins on the MAGPIX system (Merck) using the xPONENT 4.2 software (Merck). The final analysis of the acquired fluorescence data was performed with the MILLIPLEX Analyst v5.1 software (Merck). Normalized MFI values were compared with an unpaired two-sample t-test using GraphPad Prism v.8.0.1 (GraphPad Software). The p-values ≤ 0.05 were considered significant.

Substance: LL-37: the only human cathelicidin, host defense antimicrobial peptide of 37 a.a. residues, produced by solid-phase peptide synthesis
- Production of TNFα or IL-10 in human PBMCs (human PBMCs): not able to increase the production of TNFα or IL-10
- phosphorylated STAT3 ([1]; control 0.06): 0.06 MFI
- phosphorylated NF-kB ([1]; control 0.09): 0.09 MFI
- phosphorylated STAT5 ([1]; control 0.09): 0.09 MFI
- phosphorylated JNK ([1]; control 48.84): 176.7 MFI
- phosphorylated p70S6K ([1]; control 472.48): 902.08 MFI
- phosphorylated Akt ([1]; control 2712): 2358 MFI
- phosphorylated ERK 1/2 ([1]; control 5812): 11464 MFI
- phosphorylated p38 ([1]; control 17697): 21951 MFI
- phosphorylated CREB ([1]; control 81479): 106317 MFI
